Reference: patent US20230047788A1, “COMPOSITIONS COMPRISING 5-CHOLESTEN-3, 25-DIOL, 3-SULFATE (25HC3S) OR PHARMACEUTICALLY ACCEPTABLE SALT THEREOF AND AT LEAST ONE CYCLIC OLIGOSACCHARIDE” (Virginia Commonwealth University, priority 2016, published 2023)

Assay: Effect of phosphate and borate buffers on chemical stability (% remaining, impurity profile), osmolality, pH and appearance of 25HC3S 30 mg/mL in 250 mg/mL HPBCD at 80°C and 60°C
Assay type: physicochemical
Design: First Order Rate Constant: unit not given beside the values
Procedure: A total of six 25HC3S formulations at 30 mg/mL in 250 mg/mL of 2-hydroxypropyl beta cyclodextrin (HPBCD) containing 10, 20, 50 and 100 mM phosphate buffers at pH 7.5 to 8.1 and 10 and 50 mM borate buffers at pH 9.4 were prepared for the stability study. The chemical stability (measured as % remaining of 25HC3S) and physical stability (osmolality, pH and appearance) of the formulations were monitored under accelerated conditions for up to 7 days at 80° C. and up to 29 days at 60° C.
Two stock solutions of phosphate buffer at 100 and 200 mM at pH 7.4 and 7.3, respectively and one borate buffer at 100 mM at pH 9.3 were prepared (Tables 22A and 22B) and used for 250 mg/mL HPBCD vehicles preparation (Table 23).
Approximately 1200 mg each of 25HC3S was weighed into 40 mL volumetric flasks and diluted to volume with the six HPBCD vehicles containing 10-100 mM phosphate buffers or 10 and 50 mM borate buffers, respectively (Table 24). The final concentration of 25HC3S was 30 mg/mL (wt/volume, without adjusting for API purity). Aliquots of 2 mL of each formulation were filled into 2 mL glass vials, stoppered and sealed for stability sample set-up at 60° C. and 80° C. to study the effect of phosphate buffer (pH 7.5-8.1) and borate buffer (pH 9.4) at various buffer concentrations on the stability of the HPBCD formulations (Table 26).
A 0.5 mL of sample solution was transferred to a 25 mL volumetric flask and QS'ed with methanol/water=95/5 for 25HC3S concentration determination by HPLC. The % remaining of 25HC3S was calculated as follows: […]

[1] = 250 mg/mL HPBCD, 10 mM borate, 80°C, day 0
[2] = 250 mg/mL HPBCD, 10 mM borate, 80°C, day 1
[3] = 250 mg/mL HPBCD, 10 mM borate, 80°C, day 2
[4] = 250 mg/mL HPBCD, 10 mM borate, 80°C, day 3
[5] = 250 mg/mL HPBCD, 10 mM borate, 80°C, day 7
[6] = 250 mg/mL HPBCD, 10 mM borate, day 0
[7] = 250 mg/mL HPBCD, 10 mM phosphate, 80°C, day 0
[8] = 250 mg/mL HPBCD, 10 mM phosphate, 80°C, day 1
[9] = 250 mg/mL HPBCD, 10 mM phosphate, 80°C, day 2
[10] = 250 mg/mL HPBCD, 10 mM phosphate, 80°C, day 3
[11] = 250 mg/mL HPBCD, 10 mM phosphate, 80°C, day 7
[12] = 250 mg/mL HPBCD, 10 mM phosphate, day 0
[13] = 250 mg/mL HPBCD, 20 mM phosphate, 80°C, day 0
[14] = 250 mg/mL HPBCD, 20 mM phosphate, 80°C, day 1
[15] = 250 mg/mL HPBCD, 20 mM phosphate, 80°C, day 2
[16] = 250 mg/mL HPBCD, 20 mM phosphate, 80°C, day 3
[17] = 250 mg/mL HPBCD, 20 mM phosphate, 80°C, day 7

C[C@H](CCCC(C)(C)O)[C@H]1CC[C@H]2[C@@H]3CC=C4C[C@@H](OS(=O)(=O)[O-])CC[C@]4(C)[C@H]3CC[C@]12C.[Na+] [25HC3S, 5-cholesten-3, 25-diol, 3-sulfate]
Calculated t90 (10 mM borate, 80°C): 2.0 days | First Order Rate Constant (10 mM borate, 80°C): −0.0463 | Intercept (first order fit of % remaining) (10 mM borate, 80°C): 98.9 | Calculated t90 (10 mM phosphate, 80°C): 2.3 days | First Order Rate Constant (10 mM phosphate, 80°C): −0.0462 | Intercept (first order fit of % remaining) (10 mM phosphate, 80°C): 99.9 | Calculated t90 (20 mM phosphate, 80°C): 2.2 days | First Order Rate Constant (20 mM phosphate, 80°C): −0.0437 | Intercept (first order fit of % remaining) (20 mM phosphate, 80°C): 99.2 | Calculated t90 (50 mM borate, 80°C): 1.9 days | First Order Rate Constant (50 mM borate, 80°C): −0.0484 | Intercept (first order fit of % remaining) (50 mM borate, 80°C): 98.8 | Calculated t90 (50 mM phosphate, 80°C): 2.2 days | First Order Rate Constant (50 mM phosphate, 80°C): −0.0451 | Intercept (first order fit of % remaining) (50 mM phosphate, 80°C): 99.5 | Calculated t90 (100 mM phosphate, 80°C): 2.2 days | First Order Rate Constant (100 mM phosphate, 80°C): −0.0430 | Intercept (first order fit of % remaining) (100 mM phosphate, 80°C): 99 | pH (250 mg/mL HPBCD, 10 mM borate, 60°C, 29 days): 8.90 | 25HC3S concentration [1]: 28.58 mg/mL | % Remaining of 25HC3S [1]: 100.0% | 25HC3S concentration [2]: 26.90 mg/mL | % Remaining of 25HC3S [2]: 94.1% | Osmolality [2]: 318 mmol/kg | pH [2]: 9.12 | 25HC3S concentration [3]: 25.63 mg/mL | % Remaining of 25HC3S [3]: 89.7% | Osmolality [3]: 323 mmol/kg | pH [3]: 8.92 | 25HC3S concentration [4]: 24.40 mg/mL | % Remaining of 25HC3S [4]: 85.4% | Osmolality [4]: 328 mmol/kg | pH [4]: 8.60 | 25HC3S concentration [5]: 20.55 mg/mL | % Remaining of 25HC3S [5]: 71.9% | Appearance [5]: light brown | Osmolality [5]: 352 mmol/kg | pH [5]: 7.06 | Osmolality [6]: 316 mmol/kg | pH [6]: 9.36 | pH (250 mg/mL HPBCD, 10 mM phosphate, 60°C, 29 days): 7.04 | 25HC3S concentration [7]: 28.45 mg/mL | % Remaining of 25HC3S [7]: 100.0% | 25HC3S concentration [8]: 27.03 mg/mL | % Remaining of 25HC3S [8]: 95.0% | Osmolality [8]: 291 mmol/kg | pH [8]: 7.28 | 25HC3S concentration [9]: 26.00 mg/mL | % Remaining of 25HC3S [9]: 91.4% | Osmolality [9]: 286 mmol/kg | pH [9]: 6.82 | 25HC3S concentration [10]: 24.70 mg/mL | % Remaining of 25HC3S [10]: 86.8% | Osmolality [10]: 294 mmol/kg | pH [10]: 6.34 | 25HC3S concentration [11]: 20.58 mg/mL | % Remaining of 25HC3S [11]: 72.3% | Osmolality [11]: 300 mmol/kg | pH [11]: 2.67 | Osmolality [12]: 273 mmol/kg | pH [12]: 8.09 | pH (250 mg/mL HPBCD, 20 mM phosphate, 60°C, 29 days): 7.17 | 25HC3S concentration [13]: 28.63 mg/mL | % Remaining of 25HC3S [13]: 100.0% | 25HC3S concentration [14]: 27.03 mg/mL | % Remaining of 25HC3S [14]: 94.4% | Osmolality [14]: 325 mmol/kg | pH [14]: 7.35 | 25HC3S concentration [15]: 26.05 mg/mL | % Remaining of 25HC3S [15]: 91.0% | Osmolality [15]: 328 mmol/kg | pH [15]: 7.13 | 25HC3S concentration [16]: 24.70 mg/mL | % Remaining of 25HC3S [16]: 86.3% | Osmolality [16]: 328 mmol/kg | pH [16]: 6.80 | 25HC3S concentration [17]: 21.00 mg/mL | % Remaining of 25HC3S [17]: 73.3% | Osmolality [17]: 354 mmol/kg | pH [17]: 5.75 | Osmolality (250 mg/mL HPBCD, 20 mM phosphate, day 0): 311 mmol/kg
